Values of other authors in PMC5589077 (ACS chemical neuroscience, 2015).
Read-outs that look alike come from different tables or passages of the source. No end group written: not given here.

Key:
[1] = tested on: nonhuman primates with established LID; details: without reducing antiparkinsonian benefits; cited from earlier work
α4β2-nAChR = details: read-out: Ki at α4β2-nAChR; cited from earlier work
α6/α3β2β3-nAChR [2] = details: calcium-flux, cited from earlier work
α6/α3β2β3-nAChR [3] = details: read-out: Ki at α6/α3β2β3-nAChR; cited from earlier work
rats [4] = details: cited from earlier work
[5] = pretreatment with nonreinforcing doses, without affecting motor function; cited from earlier work
rats [6] = details: rat, in vivo; cited from earlier work
rats [7] = details: cited from earlier work; remark: listed apart in the source
α6β2*-nAChR [8] = details: rat striatal synaptosomes; cited from earlier work
α4β2*-nAChR [9] = details: monkey striatal synaptosomes, cited from earlier work
α6β2*-nAChR [10] = details: monkey striatal synaptosomes; cited from earlier work
α6β2*-nAChR [11] = details: read-out: Ki, striatal α6β2*-nAChR; monkey; cited from earlier work
α4β2*-nAChR [12] = details: rat striatal synaptosomes, cited from earlier work

In the case of O=C(C1CC1)N1CC2CC(C1)N2 [compound 8, 3-cyclopropylcarbonyl-3,6-dazabicyclo[3.1.1]heptane], the “effect on L-dopa induced dyskinesia (LID)” value [1] is listed as “ameliorated”, the Ki (α4β2-nAChR) is listed as 3 nM and the “Emax at α6/α3β2β3-nAChR” value (α6/α3β2β3-nAChR [2]) is listed as 100%. The EC50 (α6/α3β2β3-nAChR [2]; read-out: EC50 at α6/α3β2β3-nAChR) was 80 nM, the Ki (α6/α3β2β3-nAChR [3]) was 21 nM and the “effect on abnormal involuntary movements (AIMs)” value (rats [4]) was “reduced abnormal involuntary movements”.

For O=c1cccc2n1CC1CC2CN(CCN2CC3CC(C2)c2cccc(=O)n2C3)C1 [CC4, 1,2-bis-N-Cystinylethane], the “effect on nicotine-induced self-administration and CPP” value [5] is listed as “significantly reduced”.

In the case of “α-Ctx MII (GCCSNPVCHLEHSNLC; ends and bridges not checked; cysteine pairing not given here; UniProt P56636 49-64, looked up)”, the “effect on established nicotine self-administration” value (rats [6]) is given as “attenuated established nicotine self-administration”.

For Cc1ccc[n+](CCCCCCCCCC[n+]2cccc(C)c2)c1 [compound 9, N,N′-decane-diyl-bis-3-picolinium], the “effect on nicotine SA” value (rats [7]) is given as “reduce nicotine SA”.

For c1cnc2cc3c(cc2n1)[C@@H]1CNC[C@H]3C1 [varenicline, 6,7,8,9,10-Tetrahydro-6,10-methano-6H-pyyrazino[2,3-h][3]benzazepine], the “maximal efficacy at α6β2-nAChR” value (α6β2*-nAChR [8]) is given as 49%, the “Emax, α4β2*-nAChR” value (α4β2*-nAChR [9]) is given as […] and the EC50 (α4β2*-nAChR [9]; read-out: EC50, α4β2*-nAChR-mediated [3H]DA-release) is given as […]. For the same compound, the “Emax, α6β2*-nAChR” value (α6β2*-nAChR [10]) was 13%, the Ki (α6β2*-nAChR [11]) was 0.13 nM and the “maximal efficacy at α4β2-nAChR” value (α4β2*-nAChR [12]) was […]. The EC50 (α4β2*-nAChR [12]; read-out: EC50, α4β2*-nAChR-mediated [3H]DA release) was […].
